Reference: PubChem BioAssay (NCI)
“And” between values parts separate entries of the source, which are not always exact repeats. Equal values may be shown once.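 1) Cells in 96-well plates. 2) Compound, 48 h, 5 concentrations. 3) Linear interpolation between surrounding doses. 4) Unreached endpoint = highest concentration. GI50 is the concentration that inhibits growth by half. Definition used: TGI = concentration required for complete inhibition of growth.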

Tests used:
Experiment in all cases: NCI anticancer screen, dose series, 48 h
HCC-2998 colon = tested on: HCC-2998 colon
SNB-75 CNS = tested on: SNB-75 CNS
SK-MEL-28 melanoma = tested on: SK-MEL-28 melanoma
MCF7 breast = tested on: MCF7 breast
NCI-H522 lung = tested on: NCI-H522 lung
TK-10 renal = tested on: TK-10 renal
HOP-92 NSCLC = tested on: HOP-92 NSCLC
COLO 205 colon = tested on: COLO 205 colon
UACC-62 melanoma = tested on: UACC-62 melanoma
HCT-116 colon = tested on: HCT-116 colon

| SMILES | GI50 (HCC-2998 colon) | TGI (HCC-2998 colon) | GI50 (SNB-75 CNS) | TGI (SNB-75 CNS) | GI50 (SK-MEL-28 melanoma) | TGI (SK-MEL-28 melanoma) | GI50 (MCF7 breast) | TGI (MCF7 breast) | GI50 (NCI-H522 lung) | TGI (NCI-H522 lung) | GI50 (TK-10 renal) | TGI (TK-10 renal) | GI50 (HOP-92 NSCLC) | TGI (HOP-92 NSCLC) | GI50 (COLO 205 colon) | TGI (COLO 205 colon) | GI50 (UACC-62 melanoma) | TGI (UACC-62 melanoma) | GI50 (HCT-116 colon) | TGI (HCT-116 colon) |
| --- | --- | --- | --- | --- | --- | --- | --- | --- | --- | --- | --- | --- | --- | --- | --- | --- | --- | --- | --- | --- |
| COc1cccc(-n2ncc3c(N/N=C/c4ccc(C)cc4)ncnc32)c1 | > 25000 nM | > 25000 nM | > 25000 nM | > 25000 nM | > 25000 nM | > 25000 nM | 7200 nM | > 25000 nM | > 25000 nM | > 25000 nM | > 25000 nM | > 25000 nM | 2140 nM | > 25000 nM | 9560 nM | > 25000 nM | > 25000 nM | > 25000 nM | > 25000 nM | > 25000 nM |
| O=P(O)(O)OCC1OC(n2cnc3c(NCc4ccco4)ncnc32)C(O)C1O (stereo not drawn) | 3610 nM | > 30200 nM | 4180 nM | > 30600 nM | 16200 nM | > 100000 nM | 776 nM | > 21600 nM | 1140 nM | 19000 nM | 1770 nM | > 43900 nM | 1360 nM | 13400 nM | 2120 nM | 9880 nM | 2710 nM | 12500 nM | 410 nM | 1850 nM |
| CCC#CC[C@H](O)C/C=C1/C(=O)C=C[C@@H]1C/C=C\CCCC(=O)OC | 1070 nM | 1890 nM | 5070 nM | 13400 nM | 1120 nM | 3250 nM | 297 nM | 7010 nM | 673 nM | 1680 nM | 1660 nM | 3970 nM | 1520 nM | 5810 nM | 1140 nM | 2860 nM | 1040 nM | 2820 nM | 235 nM | 1100 nM |
| COc1cc(OC)c(/C=C/C(=O)c2ccc(Nc3ncnc4ccccc34)cc2)c(OC)c1 | 1940 nM | 14200 nM | 305 nM | 1550 nM | 940 nM | 3030 nM | 449 nM | 2590 nM | 296 nM | 1440 nM | 1540 nM | 3680 nM | 1080 nM | 3890 nM | 614 nM | 2220 nM | 599 nM | 2180 nM | 450 nM | 2040 nM |
| C=C1C(=O)O[C@H]2[C@H]1CC/C(Cn1cc(Cc3c[nH]c4ccccc34)nn1)=C\CC[C@@]1(C)O[C@@H]21 | 2180 nM | 3920 nM | 3080 nM | 12500 nM | 1660 nM | 3220 nM | 1500 nM | 3340 nM | 1430 nM | 3000 nM | 1820 nM | 3400 nM | 2000 nM | 3750 nM | 1830 nM | 3750 nM | 1660 nM | 3130 nM | 1060 nM | 2380 nM |
| O=C1NCN(c2ccccc2)C12CCN(CCCC(c1ccc(F)cc1)c1ccc(F)cc1)CC2 | 2240 nM | 4160 nM | 2070 nM | 14200 nM | 1620 nM | 3100 nM | 1880 nM | 5650 nM | 1510 nM | 2930 nM | 1790 nM | 4110 nM | 397 nM | 2620 nM | 1720 nM | 3240 nM | 1680 nM | 3150 nM | 1580 nM | 2960 nM |
| CCCCCCCN(CCCCCCC)C(=N)c1ccnc2ccccc12 | 1420 nM | 2770 nM | 1200 nM | 2770 nM | 1680 nM | 3210 nM | 1710 nM | 3320 nM | 1650 nM | 3410 nM | 1510 nM | 2970 nM | 1330 nM | 3000 nM | 1580 nM | 3510 nM | 1520 nM | 3050 nM |  |  |
| CC/C=C\C[C@H](O)C/C=C1/C(=O)C=C[C@@H]1C/C=C\CCCC(=O)OC(C)C | 1870 nM | 3380 nM | 4780 nM | 19700 nM | 1410 nM | 3050 nM | 372 nM | 2220 nM | 1250 nM | 2880 nM | 3540 nM | 9310 nM | 2250 nM | 4880 nM | 1790 nM | 3870 nM | 1370 nM | 3160 nM | 245 nM | 640 nM |
| c1ccc2cc(Cn3cc[n+](Cc4ccc5ccccc5c4)c3)ccc2c1 | 1050 nM | 4380 nM | 328 nM | 2910 nM | 1200 nM | 3360 nM | 1870 nM | 10500 nM | 393 nM | 3110 nM | 3320 nM | 14300 nM | 160 nM | 1390 nM | 400 nM | 1670 nM | 478 nM | 1980 nM | 1970 nM | 12300 nM |
| COc1ccc(-c2nsc3c2NC(=O)CC3c2ccc3c(c2)OCCO3)cc1 (stereo not drawn) | 1380 nM | 19500 nM | 220 nM | > 100000 nM | 2700 nM | > 100000 nM | 371 nM | > 100000 nM | 551 nM | > 100000 nM | 1870 nM | > 100000 nM | 356 nM | > 100000 nM | 431 nM | 2180 nM | 482 nM | > 100000 nM | 526 nM | > 100000 nM |
| CN(C)c1ccc(C(=N)c2ccc(N(C)C)cc2)cc1 | 6390 nM and 7120 nM | 33600 nM and 32600 nM | 1650 nM and 1630 nM | 11400 nM and 7350 nM | 4820 nM and 3260 nM | 48800 nM and 27500 nM | 1340 nM and 1290 nM | 32300 nM and 38300 nM | 503 nM and 1160 nM | 5010 nM and 9450 nM | 4470 nM and 7220 nM | 38900 nM and 91600 nM | 942 nM and 1520 nM | 6240 nM and 8690 nM | 2490 nM and 2160 nM | 10700 nM and 8830 nM | 3240 nM and 5320 nM | 17600 nM and 23900 nM | 2410 nM and 3460 nM | 14200 nM and 41000 nM |
| O=C1NC(=O)[C@@]2(CC[C@@H](O)C2)c2ccncc21 |  | > 100000 nM |  | > 100000 nM |  | > 100000 nM |  | > 100000 nM |  | > 100000 nM |  | > 100000 nM |  | > 100000 nM |  | > 100000 nM |  | > 100000 nM |  | > 100000 nM |
